In PMC12722308, “A phase 1 study of orally administered 5-fluoro-2’-deoxycytidine with tetrahydrouridine in patients with refractory solid tumors” (Cancer Chemotherapy and Pharmacology, 2025):
Marks after values point to notes of the source that are not given here.

Tests used:
[1] = Plasma pharmacokinetics by LC-MS/MS; type: in vivo, human
Description: (§1) Blood specimens for PK analysis were collected on Cycle 1 Day 1 (C1D1) prior to THU administration and then at 15, 30, and 45 min and 1, 2, 3, 4, 5, and 6 h after THU administration, as well as on C1D2 and C1D3 prior to and 2 h after THU administration. Urine specimens for PK analysis were collected on C1D1 prior to treatment and then at every void from 0 to 24 h after THU administration. All specimens for PK analysis were processed and analyzed by LC-MS/MS as described previously, and Phoenix WinNonlin software was used for data analysis.

[2] = Urinary excretion by LC-MS/MS; type: in vivo, human
Description: as §1

[3] = DL2: FdCyd 60 mg + THU 3000 mg oral, FU n=3, geom. mean (geom. SD)
[4] = DL3: FdCyd 90 mg + THU 3000 mg oral, FU n=3, geom. mean (geom. SD)
[5] = DL4: FdCyd 120 mg + THU 3000 mg oral, FU n=2, geom. mean (geom. SD)
[6] = DL5-9: FdCyd 160 mg + THU 3000 mg oral, FU n=29, geom. mean (geom. SD)
[7] = DL10: FdCyd 60 mg + THU 6000 mg oral, FU n=8, geom. mean (geom. SD)
[8] = DL11: FdCyd 80 mg + THU 6000 mg oral, FU n=3, geom. mean (geom. SD)
[9] = All FdCyd doses + THU 3000 mg oral (n=44), geom. mean (geom. SD)
[10] = All FdCyd doses + THU 6000 mg oral (n=11), geom. mean (geom. SD)
[11] = DL1: FdCyd 30 mg + THU 3000 mg oral (n=3), geom. mean (geom. SD)
[12] = DL1: FdCyd 30 mg + THU 3000 mg oral (n=3), no SD given
[13] = DL2: FdCyd 60 mg + THU 3000 mg oral (n=4), geom. mean (geom. SD)
[14] = DL3: FdCyd 90 mg + THU 3000 mg oral (n=3), geom. mean (geom. SD)
[15] = DL4: FdCyd 120 mg + THU 3000 mg oral (n=3), geom. mean (geom. SD)
[16] = DL5-9: FdCyd 160 mg + THU 3000 mg oral (n=31), geom. mean (geom. SD)
[17] = DL10: FdCyd 60 mg + THU 6000 mg oral (n=8), geom. mean (geom. SD)
[18] = DL11: FdCyd 80 mg + THU 6000 mg oral (n=3), geom. mean (geom. SD)
[19] = Total, all dose levels (n=55), geom. mean (geom. SD)

O=c1[nH]cc(F)c(=O)[nH]1 [FU]
FU AUC0-inf [1, 3]: 0.019 (1.70) mg/L•h | FU Cmax [1, 3]: 0.0042 (1.2) mg/L | FU AUC0-inf [1, 4]: 0.026 (1.54) mg/L•h | FU Cmax [1, 4]: 0.0055 (1.1) mg/L | FU AUC0-inf [1, 5]: 0.032 (1.12) mg/L•h | FU Cmax [1, 5]: 0.0082 (1.4) mg/L | FU AUC0-inf [1, 6]: 0.052 (1.66) mg/L•h | FU Cmax [1, 6]: 0.015 (1.6) mg/L | FU AUC0-inf [1, 7]: 0.033 (1.30) mg/L•h | FU Cmax [1, 7]: 0.011 (1.3) mg/L | FU AUC0-inf [1, 8]: 0.044 (1.36) mg/L•h | FU Cmax [1, 8]: 0.010 (1.1) mg/L | FU urinary excretion over 0-24 hours of day 1 ([2]; All FdCyd doses + THU 3000 mg, N=27, geom. mean (geom. SD)): 0.37 (2.0) % dose | FU urinary excretion over 0-24 hours of day 1 ([2]; All FdCyd doses + THU 6000 mg, N=9, geom. mean (geom. SD)): 0.27 (2.5) % dose | FU urinary excretion over 0-24 hours of day 1 ([2]; DL1: FdCyd 30 mg + THU 3000 mg, N=1): 0.20 (-) % dose | FU urinary excretion over 0-24 hours of day 1 ([2]; DL2: FdCyd 60 mg + THU 3000 mg, N=1): 0.51 (-) % dose | FU urinary excretion over 0-24 hours of day 1 ([2]; DL4: FdCyd 120 mg + THU 3000 mg, N=1): 0.34 (-) % dose | FU urinary excretion over 0-24 hours of day 1 ([2]; DL5-9: FdCyd 160 mg + THU 3000 mg, N=24, geom. mean (geom. SD)): 0.38 (2.1) % dose | FU urinary excretion over 0-24 hours of day 1 ([2]; DL10: FdCyd 60 mg + THU 6000 mg, N=6, geom. mean (geom. SD)): 0.32 (2.5) % dose | FU urinary excretion over 0-24 hours of day 1 ([2]; DL11: FdCyd 80 mg + THU 6000 mg, N=3, geom. mean (geom. SD)): 0.21 (3.0) % dose

O=c1[nH]c(=O)n([C@H]2C[C@H](O)[C@@H](CO)O2)cc1F [FdUrd]
FdUrd AUC/Dose [1, 9]: 0.55 (1.6)^d µg/L•h/mg | FdUrd Cmax/Dose [1, 9]: 0.19 (1.6)^c µg/L / mg | FdUrd t½ [1, 9]: 1.3 (1.9) h | FdUrd/FdCyd metabolic ratio, AUC0-inf [1, 9]: 0.068 (2.1)^f | FdUrd/FdCyd metabolic ratio, Cmax [1, 9]: 0.048 (2.0)^e | FdUrd AUC/Dose [1, 10]: 0.80 (1.6)^d µg/L•h/mg | FdUrd Cmax/Dose [1, 10]: 0.34 (1.5)^c µg/L / mg | FdUrd t½ [1, 10]: 1.2 (1.6) h | FdUrd/FdCyd metabolic ratio, AUC0-inf [1, 10]: 0.067 (1.4)^f | FdUrd/FdCyd metabolic ratio, Cmax [1, 10]: 0.051 (1.9)^e | FdUrd Cmax [1, 11]: 0.012 (1.4) mg/L | FdUrd Cmax/Dose [1, 11]: 0.41 (1.4) µg/L / mg | FdUrd/FdCyd metabolic ratio, Cmax [1, 11]: 0.099 (1.6) | FdUrd AUC0-inf [1, 12]: 0.047 (-) mg/L•h | FdUrd AUC/Dose [1, 12]: 1.58 (-) µg/L•h/mg | FdUrd t½ [1, 12]: 3.3 (-) h | FdUrd/FdCyd metabolic ratio, AUC0-inf [1, 12]: 0.069 (-) | FdUrd AUC0-inf [1, 13]: 0.044 (1.72) mg/L•h | FdUrd AUC/Dose [1, 13]: 0.73 (1.7) µg/L•h/mg | FdUrd Cmax [1, 13]: 0.011 (1.7) mg/L | FdUrd Cmax/Dose [1, 13]: 0.19 (1.7) µg/L / mg | FdUrd t½ [1, 13]: 1.8 (3.4) h | FdUrd/FdCyd metabolic ratio, AUC0-inf [1, 13]: 0.070 (3.5) | FdUrd/FdCyd metabolic ratio, Cmax [1, 13]: 0.039 (2.3) | FdUrd AUC0-inf [1, 14]: 0.043 (1.20) mg/L•h | FdUrd AUC/Dose [1, 14]: 0.48 (1.2) µg/L•h/mg | FdUrd Cmax [1, 14]: 0.015 (1.2) mg/L | FdUrd Cmax/Dose [1, 14]: 0.16 (1.2) µg/L / mg | FdUrd t½ [1, 14]: 1.1 (1.3) h | FdUrd/FdCyd metabolic ratio, AUC0-inf [1, 14]: 0.041 (1.7) | FdUrd/FdCyd metabolic ratio, Cmax [1, 14]: 0.028 (1.7) | FdUrd AUC0-inf [1, 15]: 0.054 (1.97) mg/L•h | FdUrd AUC/Dose [1, 15]: 0.45 (2.0) µg/L•h/mg | FdUrd Cmax [1, 15]: 0.016 (1.6) mg/L | FdUrd Cmax/Dose [1, 15]: 0.14 (1.6) µg/L / mg | FdUrd t½ [1, 15]: 1.7 (1.2) h | FdUrd/FdCyd metabolic ratio, AUC0-inf [1, 15]: 0.034 (1.3) | FdUrd/FdCyd metabolic ratio, Cmax [1, 15]: 0.018 (1.3) | FdUrd AUC0-inf [1, 16]: 0.084 (1.55) mg/L•h | FdUrd AUC/Dose [1, 16]: 0.53 (1.6) µg/L•h/mg | FdUrd Cmax [1, 16]: 0.031 (1.5) mg/L | FdUrd Cmax/Dose [1, 16]: 0.20 (1.5) µg/L / mg | FdUrd t½ [1, 16]: 1.2 (1.7) h | FdUrd/FdCyd metabolic ratio, AUC0-inf [1, 16]: 0.070 (1.8) | FdUrd/FdCyd metabolic ratio, Cmax [1, 16]: 0.054 (1.9) | FdUrd AUC0-inf [1, 17]: 0.047 (1.59) mg/L•h | FdUrd AUC/Dose [1, 17]: 0.79 (1.6) µg/L•h/mg | FdUrd Cmax [1, 17]: 0.023 (1.4) mg/L | FdUrd Cmax/Dose [1, 17]: 0.38 (1.4) µg/L / mg | FdUrd t½ [1, 17]: 1.0 (1.5) h | FdUrd/FdCyd metabolic ratio, AUC0-inf [1, 17]: 0.072 (1.4) | FdUrd/FdCyd metabolic ratio, Cmax [1, 17]: 0.060 (1.8) | FdUrd AUC0-inf [1, 18]: 0.068 (1.68) mg/L•h | FdUrd AUC/Dose [1, 18]: 0.85 (1.7) µg/L•h/mg | FdUrd Cmax [1, 18]: 0.019 (1.6) mg/L | FdUrd Cmax/Dose [1, 18]: 0.24 (1.6) µg/L / mg | FdUrd t½ [1, 18]: 1.7 (1.5) h | FdUrd/FdCyd metabolic ratio, AUC0-inf [1, 18]: 0.056 (1.2) | FdUrd/FdCyd metabolic ratio, Cmax [1, 18]: 0.033 (1.8) | FdUrd Cmax/Dose [1, 19]: 0.22 (1.6) µg/L / mg | FdUrd t½ [1, 19]: 1.3 (1.8) h | FdUrd urinary excretion over 0-24 hours of day 1 ([2]; All FdCyd doses + THU 3000 mg, N=5, geom. mean (geom. SD)): 0.053 (1.3) % dose | FdUrd urinary excretion over 0-24 hours of day 1 ([2]; All FdCyd doses + THU 6000 mg, N=3, geom. mean (geom. SD)): 0.10 (2.6) % dose | FdUrd urinary excretion over 0-24 hours of day 1 ([2]; DL4: FdCyd 120 mg + THU 3000 mg, N=2, geom. mean (geom. SD)): 0.064 (1.0) % dose | FdUrd urinary excretion over 0-24 hours of day 1 ([2]; DL5-9: FdCyd 160 mg + THU 3000 mg, N=3, geom. mean (geom. SD)): 0.047 (1.3) % dose | FdUrd urinary excretion over 0-24 hours of day 1 ([2]; DL10: FdCyd 60 mg + THU 6000 mg, N=2, geom. mean (geom. SD)): 0.14 (2.6) % dose | FdUrd urinary excretion over 0-24 hours of day 1 ([2]; DL11: FdCyd 80 mg + THU 6000 mg, N=1): 0.045 (-) % dose
